From ChEMBL document CHEMBL3137667, “[Drug-induced liver injury; fourteenth updated edition of the bibliographic database of liver injuries and related drugs]” (Gastroenterol Clin Biol, 2004)

Tests used:
[1] = Highest frequency of moderate liver toxicity observed during clinical trials, expressed as a percentage. [column '% BIOL' in source]; conditions: human
[2] = Highest frequency of acute liver toxicity observed during clinical trials, expressed as a percentage. [column '% AIGUE' in source]; conditions: human
[3] = Times to onset, minimal and maximal, observed in the indexed observations. [column 'DELAI' in source]; conditions: human
[4] = Proposed mechanism(s) of liver damage. [column 'MEC' in source]; conditions: human
[5] = human, serum
[6] = human, serum; remark: listed apart in the source
[7] = human
[8] = human; remark: listed apart in the source
[9] = human; remark: listed apart in the source
[10] = human, serum, 4383 h
[11] = human; remark: listed apart in the source
[12] = human; remark: listed apart in the source
[13] = human; remark: listed apart in the source
[14] = human; remark: listed apart in the source
[15] = human; remark: listed apart in the source
[16] = human; remark: listed apart in the source
[17] = human; remark: listed apart in the source
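Wherever Hepatotoxicity (association with vascular disease) is given: count of indexed literature references reporting vascular liver injury in humans, e.g. peliosis hepatitis, hepatic veno-occlusive disease or Budd-Chiari syndrome.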
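Wherever Hepatotoxicity (benign tumour) is given: value is a count of indexed literature references citing a benign tumour confirmed by histopathology.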
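Wherever Hepatotoxicity (choleostasis) is given: human cholestatic liver injury, shown by histopathology or by peak ALT or AST elevation over alkaline phosphatase ratio below 2, value counts indexed literature reports.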
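Wherever Hepatotoxicity (chronic liver disease) is given: chronic liver injury confirmed by histopathology or persistently raised serum aminotransferase activity beyond 6 months, value given as the count of indexed literature references.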
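Wherever Hepatotoxicity (cirrhosis) is given: value is a count of indexed literature references reporting cirrhosis confirmed by histopathology.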
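Wherever Hepatotoxicity (cytolytic) is given: human cytolytic liver injury, shown by histopathology or by a ratio above 5 of peak ALT or AST elevation to alkaline phosphatase elevation, value counts indexed references.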
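Wherever Hepatotoxicity (granulomatous hepatitis) is given: value is a count of indexed literature references reporting granulomatous liver disease confirmed by histopathology.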
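Wherever Hepatotoxicity (malignant tumour) is given: malignant tumour confirmed by histopathology, value gives the count of indexed literature references reporting it.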
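Wherever Hepatotoxicity (severe hepatitis) is given: human clinical data: severe hepatitis, meaning potentially life-threatening liver failure or clinically observed cases, the value counts how many indexed literature references report it.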
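Wherever Hepatotoxicity (steatosis) is given: steatosis confirmed by histopathology, value is the count of indexed references.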

Structure (SMILES)	Hepatotoxicity (moderate) [1]	Hepatotoxicity (acute) [2]	Hepatotoxicity (time to onset) [3]	Hepatotoxicity (mechanism) [4]	Hepatotoxicity (moderate) [5]	Hepatotoxicity (acute) [6]	Hepatotoxicity (cytolytic) [7]	Hepatotoxicity (choleostasis) [8]	Hepatotoxicity (severe hepatitis) [9]	Hepatotoxicity (chronic liver disease) [10]	Hepatotoxicity (cirrhosis) [11]	Hepatotoxicity (granulomatous hepatitis) [12]	Hepatotoxicity (association with vascular disease) [13]	Hepatotoxicity (steatosis) [14]	Hepatotoxicity (malignant tumour) [15]	Hepatotoxicity (benign tumour) [16]	Hepatotoxicity (animal toxicity known) [17]	further results
Nc1ccc(/N=N/c2ccccc2)c(N)n1 [PHENAZOPYRIDINE]	0%	0%	1 week	Allergic, Toxic Metabolite	4	2	0	2	0	0	0	0	0	0	0	0	yes	
C[C@@H](CN1CC(=O)NC(=O)C1)N1CC(=O)NC(=O)C1 [DEXRAZOXANE]	13%	0%	1 week	Dose-dependant	3	0	0	0	0	0	0	0	0	0	0	0	yes	
COc1cc2c(c(OC)c1OC)-c1ccc(OC)c(=O)cc1[C@@H](NC(C)=O)CC2 [COLCHICINE]	28.6%	0%	2 hours - 2 days	Overdose	2	7	3	0	0	0	0	0	0	0	0	0	yes	
COc1cc(NC(C)CCCN)c2ncccc2c1 (stereo not drawn) [PRIMAQUINE]	0%	0%	2 days	Overdose	0	1	1	0	0	0	0	0	0	0	0	0	yes	
ClC=C(Cl)Cl [TRICHLOROETHYLENE]	0%	0%	1 day - 6 weeks	Toxic Metabolite	1	14	14	0	14	0	2	0	0	0	0	0	yes	
CO[C@H](C(=O)[C@@H](O)[C@@H](C)O)[C@@H]1Cc2cc3cc(O[C@H]4C[C@@H](O[C@H]5C[C@@H](O)[C@H](O)[C@@H](C)O5)[C@H](O)[C@@H](C)O4)c(C)c(O)c3c(O)c2C(=O)[C@H]1O[C@H]1C[C@@H](O[C@H]2C[C@@H](O[C@H]3C[C@](C)(O)[C@H](O)[C@@H](C)O3)[C@@H](O)[C@@H](C)O2)[C@H](O)[C@@H](C)O1 [PLICAMYCIN]	100%	0%	4 days	Dose-dependant	24	6	6	0	3	0	0	0	0	1	0	0	yes	
CCOc1ccc(NC(C)=O)cc1 [PHENACETIN]	0%	0%	2 days - 2 years	Dose-dependant	2	4	0	0	0	0	0	2	0	1	0	0	yes	
Cc1ccc(C(=O)c2cc(O)c(O)c([N+](=O)[O-])c2)cc1 [TOLCAPONE]			1 month - 6 months		6	6				0	0		0	0	0	0	yes	Hepatotoxicity (moderate) ([1]; Liver): 14.3%; Hepatotoxicity (acute) ([2]; Liver): 0.7%; Hepatotoxicity (mechanism) ([4]; Liver): Mitochondrial toxicity; Hepatotoxicity (cytolytic) ([7]; Liver): 6; Hepatotoxicity (choleostasis) ([8]; Liver): 0; Hepatotoxicity (severe hepatitis) ([9]; Liver): 5; Hepatotoxicity (granulomatous hepatitis) ([12]; Liver): 0
Cc1c(N(C)C)c(=O)n(-c2ccccc2)n1C [AMINOPYRINE]			3 months	Dose-dependant	2	6	3	1		0	0	0	0	1	0	0	yes	Hepatotoxicity (moderate) ([1]; Liver): 0%; Hepatotoxicity (acute) ([2]; Liver): 0%; Hepatotoxicity (severe hepatitis) ([9]; Liver): 2
